Key:
[1] = biological target: T1, BCL-2/BAK (Homo sapiens, UniProt P10415); test: Screening on inhibitory activity for BCL-2/BAK binding (Cisbio HTRF kit)
T1 construct: purchased Cisbio
In short: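 HTRF competition assay: Tag1-BCL-2 and Tag2-BAK working dilutions were 5 nM and 120 nM. Compound (200–0.0488 nM final, 4-fold, 7 points, duplicates) was incubated with the proteins for 15 min at 25 °C, then with Eu-cryptate/XL665 antibodies for ≥2 h at 25 °C. IC50 was derived from a four-parameter fit.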

[2] = biological target: T2, BCL-XL/BAK (Homo sapiens, UniProt Q07817); test: Screening on inhibitory activity for BCL-XL/BAK binding (Cisbio HTRF kit)
T2 construct: purchased Cisbio
In short: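 Tag1-BCL-XL and Tag2-BAK (2 nM and 80 nM before mixing) were combined with compounds at final 2000–0.488 nM (4-fold, 7 points, duplicates) for 15 min at 25° C. Eu3+ anti-Tag1 and XL665 anti-Tag2 were then added for ≥2 h at 25° C. HTRF (620/665 nm) gave IC50 by four-parameter fit.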

[3] = tested on: RS4;11 cells; test: Inhibitory effect on proliferation of RS4;11 cells (CCK-8); assay type: cell-based, human; conditions: Homo sapiens, RS4-11, 72 h
In short: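 RS4;11 cells were seeded at 1×10^5 cells/mL in RPMI with 5% FBS and incubated 24 h at 37° C, 5% CO2 before compound addition in duplicate. Inhibition was calculated against untreated and blank controls. IC50 came from a four-parameter fit of log concentration versus inhibition.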

[4] = In vitro stability in mouse liver microsomes; assay type: in vitro ADME; conditions: 1 μM
Experimental: (§1) Experimental Example 3: In Vitro Stability in Liver Microsome
(§2) 300 μL of the final incubation system contains 30 μL of liver microsomes (protein concentration: 5 mg/mL), 30 μL of NADPH+MgCl2, 3 μL of the test compound (in acetonitrile), and 237 μL of PBS buffer (pH 7.4), wherein the proportion of the organic solvent (acetonitrile) is 1% (volume ratio). Two duplicate samples were prepared for each specie (mouse, rat and human), and each sample was 0.3 mL. Each tube which was added with 270 μL of a mixed solution of substrate and enzyme, and NADPH, after being pre-incubated at 37° C. for 5 min, was added with 30 μL of NADPH+MgCl2 and mixed. Then 50 μL of the mixture was taken at 0 min, 15 min, 30 min and 60 min, and added with 300 μL of glacial acetonitrile containing an internal standard to terminate the reaction.
(§3) 50 μL of the incubated sample was added with 300 μL of glacial acetonitrile containing an internal standard (20 ng/mL diazepam) for precipitation, vortexed for 5 min, and centrifuged (13,000 rpm, 20° C.) for 10 min. 70 μL of supernatant was taken and diluted with 70 μL of ultrapure water. After being mixed well, 1 μL of the resulting sample was injected for analysis.

[5] = In vitro stability in rat liver microsomes; assay type: in vitro ADME; conditions: 1 μM
Experimental: as §1, §2, §3

[6] = In vitro stability in human liver microsomes; assay type: in vitro ADME; conditions: 1 μM
Experimental: as §1, §2, §3

[7] = tested on: human platelet Caspase-3 activity; test: Human platelet toxicity experiment (Caspase-3 activity assay); assay type: cell-based; conditions: 90 min, data normalized, reference ABT-199
Experimental: Experimental Example 6: Human Platelet Toxicity Experiment (Caspase-3 Activity Assay)
10 mL of human whole blood was collected using a heparin sodium anticoagulation tube, mixed well by turning upside down, and centrifuged at 90 g for 10 min. The supernatant was collected and centrifuged at 1950 g for 10 min. The supernatant was discarded, and the residue was resuspended in 4 mL of PBS, and centrifuged at 1190 g for 5 min, and the procedure was repeated once. The supernatant was discarded, and the platelets were resuspended in PBS and adjusted to the density of 2-3×10^8 cells/mL. Cells were seeded into a 96-well plate at a density of 2-3×10^7 cells/mL and at 100 μL/well. 50 μL of control buffer was added to each negative control well, and 50 μL of compound at a corresponding concentration was added to each compound well, so that the final concentration of the compound was 2.5 μM, 2 μM, 1 μM or 0.5 μM, followed by incubation in an incubator at 37° C. for 90 min. The liquids in the 96-well plate were transferred to 1.5 mL centrifuge tubes, respectively. The tubes were centrifuged at 4° C. and 6000 g for 5 min, and placed on ice for later use after the supernatant was discarded. 5× lysis buffer was diluted into 1× lysis buffer with water in the kit, and protease inhibitor cocktail was added at a 1:200 ratio to prepare a lysis mixture for later use. 40 μL of lysis mixture was added to each centrifuge tube, and the platelets at the bottom were resuspended using a pipette. The suspension was lysed on ice for 15-20 min and centrifuged at 4° C. and 14,000 g for 10 min. The sample was sub-packaged for later use. 10× assay buffer was diluted into 1× assay buffer with water in the kit, and substrate Ac-DEVD-AMC was added at a 1:600 ratio to prepare a reaction mixture. 5 μL of assay buffer and 40 μL of reaction mixture were added to each blank control well. 5 μL of control platelet lysate and 40 μL of reaction mixture were added to each negative control well. 5 μL of platelet lysate and 40 μL of reaction mixture were added to each compound well. In this procedure, 40 μL of reaction mixture was added at last. The resulting mixture was mixed gently, and the plate was read by a PE Envision multi-functional microplate reader (excitation: 360 nm, emission: 460 nm) once every 10 min for 6 times. Caspase-3 activity was determined based on the intensity of the released AMC fluorescence, that is the slope of the fitted line to which each well corresponds represents Caspase activity (all data were normalized and the reference was ABT-199).

T1 sequence (P10415 whole entry, species assumed): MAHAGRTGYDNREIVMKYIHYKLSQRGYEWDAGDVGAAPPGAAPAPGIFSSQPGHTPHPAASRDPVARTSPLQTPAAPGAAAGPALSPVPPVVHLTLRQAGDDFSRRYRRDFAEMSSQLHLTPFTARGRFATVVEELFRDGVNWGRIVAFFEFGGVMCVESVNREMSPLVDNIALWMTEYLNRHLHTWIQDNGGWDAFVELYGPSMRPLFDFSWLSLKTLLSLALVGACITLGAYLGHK
T2 sequence (Q07817 whole entry, species assumed): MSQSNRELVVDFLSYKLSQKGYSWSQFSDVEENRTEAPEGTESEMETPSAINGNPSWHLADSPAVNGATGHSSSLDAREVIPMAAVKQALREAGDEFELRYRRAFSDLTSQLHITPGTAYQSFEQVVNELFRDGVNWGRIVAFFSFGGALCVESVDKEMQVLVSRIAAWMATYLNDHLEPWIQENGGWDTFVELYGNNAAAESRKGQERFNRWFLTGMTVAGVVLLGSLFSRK

## CC1(C)CCC(CN2CCN(c3ccc(C(=O)NS(=O)(=O)c4ccc(NCC5CCOCC5)c([N+](=O)[O-])c4)c(Oc4cnc5[nH]ccc5c4)c3)CC2)=C(c2ccc(C(F)(F)F)c(F)c2)C1 [Compound 6-1, 4-(4-{[2-(3-fluoro-4-trifluoromethylphenyl)-4,4-dimethylcyclohex-1-enyl]methyl}-piperazin-1-yl)-N-({3-nitro-4-[(tetrahydro-2H-pyran-4-ylmethyl)amino]phenyl}sulfonyl)-2-(1H-pyrrolo[2,3-b]pyridin-5-yloxy)-benzamide]
[1]
  IC50: 5.7 nM
[2]
  IC50: 1970 nM
[3]
  IC50: 2.4 nM
[4]
  Mouse Residual content after 60 min (%): 65.3%
[5]
  Rat Residual content after 60 min (%): 61.2%
[6]
  Human Residual content after 60 min (%): 65.9%
[7]; compound concentration 1 μM
  human platelet Caspase-3 activity, Slope: 0.45

## COCC(=O)N1CCO[C@H](CNc2ccc(S(=O)(=O)NC(=O)c3ccc(N4CCN(CC5=C(c6ccc(C(F)(F)F)cc6Cl)CC(C)(C)CC5)CC4)cc3Oc3cnc4[nH]ccc4c3)cc2[N+](=O)[O-])C1 [Compound 11-1]
[1]
  IC50: 1.6 nM
[2]
  IC50: 140 nM
[3]
  IC50: 2.5 nM
[4]
  Mouse Residual content after 60 min (%): 62.9%
[5]
  Rat Residual content after 60 min (%): 66.3%
[6]
  Human Residual content after 60 min (%): 67.4%
[7]; compound concentration 0.5 μM
  human platelet Caspase-3 activity, Slope: 0.42
[7]; compound concentration 2 μM
  human platelet Caspase-3 activity, Slope: 0.57

## CC1(C)CCC(CN2CCN(c3ccc(C(=O)NS(=O)(=O)c4ccc(NCC5CN(S(C)(=O)=O)CCO5)c([N+](=O)[O-])c4)c(Oc4cnc5[nH]ccc5c4)c3)CC2)=C(c2ccc(C(F)(F)F)cc2Cl)C1 (centres unmarked) [Compound 12-1, 4-(4-{[2-(2-chloro-4-trifluoromethylphenyl)-4,4-dimethylcyclohex-1-enyl]methyl}-piperazin-1-yl)-N-({3-nitro-4-[((4-methylsulfonylmorpholin-2-yl)methyl)amino]phenyl}sulfonyl)-2-(1H-pyrrolo[2,3-b]pyridin-5-yloxy)-benzamide]
[1]
  IC50: 1.4 nM
[2]
  IC50: 113 nM
[3]
  IC50: 1.7 nM
[4]
  Mouse Residual content after 60 min (%): 93.4%
[5]
  Rat Residual content after 60 min (%): 80.2%
[6]
  Human Residual content after 60 min (%): 91.3%
[7]; compound concentration 0.5 μM
  human platelet Caspase-3 activity, Slope: 0.27
[7]; compound concentration 2 μM
  human platelet Caspase-3 activity, Slope: 0.33

— patent US20250257064A1, “TRIFLUOROMETHYL-SUBSTITUTED SULFONAMIDE AS BCL-2-SELECTIVE INHIBITOR” (Chia Tai Tianqing Pharmaceutical Group Co., Ltd., priority 2018, published 2025)
